{"source": "paper PMC12030497", "about": "“Plasma Protein Binding, Biostability, Metabolite Profiling, and CYP450 Phenotype of TPB15 Across Different Species: A Novel Smoothened Inhibitor for TNBC Therapy” (Pharmaceutics, 2025)", "key": {"[1]": {"test": "Metabolic stability in monkey liver microsomes (MLM)", "format": "in vitro ADME, crab-eating monkey", "method": "A total of 450 μL liver microsomes from mice, rat, dog, monkey, and human were spiked with 0.5 μL of TPB15 solution and pre-incubated in a water bath at 37 °C for 10 min. Following this, 50 μL of NADPH were added to initiate the reaction. The concentrations of each substance in the incubation system are detailed in Table 1. After initiating the metabolic reaction, 50 μL aliquots were removed at incubation times of 0, 5, 15, 30, 45, 60, and 90 min and transferred to 150 μL of icy methanol solution containing the internal standard to terminate the reaction. The mixtures were swirled for 2 min and then centrifuged at 14,800 rpm at 4 °C for 10 min. […] Three samples were prepared in parallel at each time point. Additionally, both a positive control group and a blank control group were established. In the positive control group, substrate testosterone was incubated with liver microsomes from mice, rat, dog, monkey, and human. The concentrations of substrate testosterone were measured at 0 and 90 min, and the changes in concentration before and after incubation were compared to confirm the activity of the liver microsomes. The blank control group included one drug-containing inactivated liver microsome sample for each species. The metabolic stability parameters, including in vitro elimination half-life (T1/2) and in vitro intrinsic clearance rate (CLint), were calculated based on this graph using the following formulas: in vitro elimination half-life (T1/2) = −0.693/k and in vitro intrinsic clearance rate (CLint) = (0.693 × incubation medium (mL))/(liver microsomes (mg) × T1/2)."}, "[2]": {"tested_on": "normal mammary epithelial cells (MCF10A)", "set-up": "method as in PMID 32690258", "settings": "read-out: half-maximal inhibitory concentration (IC50) on normal mammary epithelial cells (MCF10A); cited from earlier work"}, "[3]": {"test": "Metabolite identification in human liver microsomes", "format": "in vitro ADME", "settings": "metabolite +16 Da, seen at 45 and 90 min, not at 0 min", "method": "A total of 450 μL of human liver microsomes were spiked with 0.5 μL of the substrate TPB15 and incubated in a water bath at 37 °C for 10 min. The reaction was initiated by adding 50 μL of NADPH. Following incubation, 50 μL of the reaction mixture were transferred to 150 μL of ice-cold methanol to terminate the reaction. The mixture was then centrifuged at 14,800 rpm at 4 °C for 10 min. A volume of 5 μL of the supernatant was collected for analysis using a QTRAP 4000 mass spectrometer(AB Sciex, Framingham, MA, USA), with three parallel samples prepared for each time point. The primary mass spectrometry conditions were as follows: curtain gas at 30 psi, sprayer gas (GS1) at 50 psi, drier gas (GS2) at 50 psi, ion source temperature at 550 °C, and cluster-removal voltage at 100 V. The ion source (IS) spray voltage was set to 5500 V, with a focusing potential (FP) of 200 V, an entrance potential (EP) of 10 V, an exit potential (CXP) of 15 V, and a collision energy of 86 V for TPB15. Chromatographic separation was performed using an Agilent ZORBAX Stable Bond C18 column (50 mm × 2.1 mm i.d., 3.5 μm particle size) at a column temperature of 35 °C. The injection volume was 5 μL, and the elution was carried out in gradient mode. The mobile phase consisted of two components: mobile phase A (an aqueous solution with 0.1% formic acid) and mobile phase B (methanol). […]"}, "[4]": {"test": "Plasma protein binding by ultrafiltration, rat plasma", "format": "in vitro ADME, SD rat", "method": "(§1) To prepare plasma samples of TPB15 at final concentrations of 4, 8, and 16 μg/mL, 1 μL of TPB15 dissolved in dimethyl sulfoxide (DMSO) at low (400 μg/mL), medium (800 μg/mL), and high (1600 μg/mL) concentrations was added to 99 μL of blank plasma obtained from humans, rats, mice, monkeys, and dogs. Each concentration was prepared in six replicates. The samples were then divided into two groups: one for determining the pre-ultrafiltration concentration (Cpre) and the other for measuring the post-ultrafiltration concentration (Ct), following the evaluation of the non-specific binding coefficient (NSB) of TPB15 to the ultrafiltration tubes. For Cpre determination, 10 μL of the sample was mixed with 990 μL of plasma, vortexed thoroughly, and analyzed for drug concentration using the previously reported liquid chromatography–tandem mass spectrometry (LC-MS/MS) method. For Ct determination, the samples were first incubated in a water bath at 37 °C for 3 h. After incubation, they were transferred to ultrafiltration tubes and centrifuged at 14,000 rpm for 20 min at 4 °C using a centrifuge (Sigma 3K-15) from Sigma Laborzentrifugen GmbH (Osterode am Harz, Germany). After centrifugation, 10 μL of the ultrafiltrate was mixed with 990 μL of plasma, vortexed, and analyzed for concentration using the same LC-MS/MS method. The formula for calculating the plasma protein binding rate (PPB) is as follows: PPB (%) = [1 − Ct/(1 − NSB)/Cpre] × 100%. (NSB: non-specific binding coefficient. […])."}, "mouse plasma protein": {"tested_on": "mouse plasma protein", "test": "Plasma protein binding by ultrafiltration, mouse plasma", "format": "in vitro ADME, KM mice", "settings": "37 °C 3 h", "method": "as §1"}, "[5]": {"test": "Plasma protein binding by ultrafiltration, mouse plasma", "format": "in vitro ADME, KM mice", "settings": "KM; mouse plasma, 4 to 16 μg/mL; read-out: average plasma protein binding rates, range over concentrations", "method": "as §1"}, "Smo": {"tested_on": "Smo", "set-up": "method as in PMID 32690258", "settings": "preliminary studies; cited from earlier work"}, "[6]": {"test": "Plasma protein binding by ultrafiltration, human plasma", "format": "in vitro ADME", "method": "as §1"}}, "note": "pIC50: −log10 of the molar value.", "data": [{"smiles": "O=C(Nc1ccc(Cl)c(-c2nnc3c(Cl)cccn23)c1)c1ccc(Cl)nc1Cl", "note": "[TPB15]", "values": [{"measurement": "T1/2 (min), in vitro elimination half-life", "setting": "[1]; MLM, 5 μM TPB15, 0.5 mg/mL microsomes", "value": 88.34, "unit": "min"}, {"measurement": "remaining proportion of TPB15 in liver microsomes", "setting": "[1]; crab-eating monkey microsomes, 90 min, 5 μM TPB15, 0.5 mg/mL, NADPH 1 mM", "value": "48.0 ± 2.86", "unit": "%"}, {"measurement": "microsomal CLint at 5 μM", "setting": "[1]; monkey liver microsomes, MLM, 5 μM TPB15, 0.5 mg/mL microsomes, read-out: CLint (mL/min/mg), in vitro intrinsic clearance rate", "value": 0.0941, "unit": "mL/min/mg"}, {"measurement": "half-life at 5 μM", "setting": "[1]; monkey liver microsomes, MLM, 5 μM TPB15, 0.5 mg/mL microsomes, read-out: T1/2 (min), in vitro elimination half-life", "value": 88, "unit": "min"}, {"measurement": "pIC50", "setting": "[2]", "value": 3.77}, {"measurement": "metabolic reaction of TPB15 in human liver microsomes", "setting": "[3]", "value": "oxidation"}, {"measurement": "fraction unbound at 3 h", "setting": "[4]; SD, rat plasma, 4 to 16 μg/mL, read-out: average plasma protein binding rates, range over concentrations", "value": "0.176 to 0.191"}, {"measurement": "fraction unbound at 3 h, 4 μg/mL", "setting": "[4]; Sprague-Dawley, rat, plasma, 4 μg/mL TPB15, ultrafiltration, 37 °C 3 h, read-out: Plasma Protein Binding (%) SD Rat (converted)", "value": 0.183}, {"measurement": "fraction unbound at 3 h, 8 μg/mL", "setting": "[4]; Sprague-Dawley, rat, plasma, 8 μg/mL TPB15, ultrafiltration, 37 °C 3 h, read-out: Plasma Protein Binding (%) SD Rat (converted)", "value": 0.191}, {"measurement": "fraction unbound at 3 h, 16 μg/mL", "setting": "[4]; Sprague-Dawley, rat, plasma, 16 μg/mL TPB15, ultrafiltration, 37 °C 3 h, read-out: Plasma Protein Binding (%) SD Rat (converted)", "value": 0.176}, {"measurement": "Plasma Protein Binding (%) KM Mice", "setting": "mouse plasma protein; 4 μg/mL TPB15, ultrafiltration", "value": "81.80 ± 0.10", "unit": "%"}, {"measurement": "Plasma Protein Binding (%) KM Mice", "setting": "mouse plasma protein; 8 μg/mL TPB15, ultrafiltration", "value": "81.21 ± 0.34", "unit": "%"}, {"measurement": "Plasma Protein Binding (%) KM Mice", "setting": "mouse plasma protein; 16 μg/mL TPB15, ultrafiltration", "value": "82.40 ± 0.42", "unit": "%"}, {"measurement": "fraction unbound at 3 h", "setting": "[5]", "value": "0.176 to 0.188"}, {"measurement": "binding to the Smo target", "setting": "Smo", "value": "effectively binds to the Smo target"}, {"measurement": "fraction unbound at 3 h", "setting": "[6]; human plasma, 4 to 16 μg/mL, read-out: average plasma protein binding rates, range over concentrations", "value": "0.179 to 0.185"}, {"measurement": "fraction unbound at 3 h, 4 μg/mL", "setting": "[6]; human, plasma, 4 μg/mL TPB15, ultrafiltration, 37 °C 3 h", "value": 0.185}, {"measurement": "fraction unbound at 3 h, 8 μg/mL", "setting": "[6]; human, plasma, 8 μg/mL TPB15, ultrafiltration, 37 °C 3 h", "value": 0.183}, {"measurement": "fraction unbound at 3 h, 16 μg/mL", "setting": "[6]; human, plasma, 16 μg/mL TPB15, ultrafiltration, 37 °C 3 h", "value": 0.179}]}]}
